Reference: PubChem BioAssay (NCI)
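Results reflect a 48-hour exposure of cells in 96-well plates to compound at five concentrations. Abbreviation: GI50, concentration required for 50% inhibition of growth. TGI: total growth inhibition.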

What was measured:
Experiment in all cases: NCI-60 cell line screen, 48 h
HCC-2998 colon = test system: HCC-2998 colon
SK-MEL-28 melanoma = test system: SK-MEL-28 melanoma
HCT-116 colon = test system: HCT-116 colon
CAKI-1 renal = test system: CAKI-1 renal
MALME-3M melanoma = test system: MALME-3M melanoma
UACC-62 melanoma = test system: UACC-62 melanoma
CCRF-CEM leukemia = test system: CCRF-CEM leukemia
OVCAR-3 ovarian = test system: OVCAR-3 ovarian

SMILES | TGI (HCC-2998 colon) | TGI (SK-MEL-28 melanoma) | TGI (HCT-116 colon) | TGI (CAKI-1 renal) | TGI (MALME-3M melanoma) | TGI (UACC-62 melanoma) | TGI (CCRF-CEM leukemia) | TGI (OVCAR-3 ovarian) | GI50 (HCC-2998 colon) | GI50 (SK-MEL-28 melanoma) | GI50 (HCT-116 colon) | GI50 (CAKI-1 renal) | GI50 (MALME-3M melanoma) | GI50 (UACC-62 melanoma) | GI50 (CCRF-CEM leukemia) | GI50 (OVCAR-3 ovarian)
CC(SC(=S)N1CCOCC1)c1cc2oc(=O)n(C)c2cc1Cl (stereo not given) | > 100 µM | > 100 µM | > 100 µM | > 100 µM | > 100 µM | > 100 µM | > 100 µM | > 100 µM |  |  |  |  |  |  |  | 
C/C(O)=C(\N=O)C(=O)Nc1ccc(Cl)cc1Cl | > 100 µM | > 100 µM | > 100 µM | > 100 µM | > 100 µM | > 100 µM | > 100 µM | > 100 µM |  |  |  |  |  |  |  | 
CCOCC(=O)N[C@H]1CCc2cc(OC)c(OC)c(OC)c2-c2ccc(OC)c(=O)cc21 | 5.27 µM | > 100 µM | 10.7 µM | 30.1 µM | > 100 µM | > 100 µM | > 100 µM | 0.0849 µM |  |  |  |  |  |  |  | 
CCN(CC)CCCC(C)Nc1c2ccc(Cl)cc2nc2ccc(O)cc12 (stereo not given) | 6.97 µM | 2.98 µM | 3.08 µM | 6.1 µM | 2.87 µM | 4.02 µM | 28.9 µM | 5.93 µM | 2.44 µM | 1.6 µM | 1.13 µM | 2.25 µM | 1.42 µM | 1.89 µM | 3.48 µM | 2.05 µM
O=C1Nc2ccccc2C1(c1ccc(O)cc1)c1ccc(O)cc1 | 27 µM | 65.7 µM | 31.6 µM | 81.3 µM | 92 µM | 43.8 µM | 99.8 µM | 0.899 µM | 1.99 µM | 26.9 µM | 14.5 µM | 22.7 µM | 28.5 µM | 19.2 µM | 32.7 µM | 0.11 µM
CNC(=O)C1CCc2nnc(-c3ccccc3)n21 (stereo not given) | > 100 µM | > 100 µM | > 100 µM | > 100 µM | > 100 µM | > 100 µM | > 100 µM | > 100 µM |  |  |  |  |  |  |  | 
Nc1nccc(-c2c(-c3ccc(F)cc3)ncn2C2CCC(O)CC2)n1 (stereo not given) | > 25 µM | > 25 µM | > 25 µM | > 25 µM | > 25 µM | > 25 µM | > 25 µM | > 25 µM | 17.3 µM | 14.8 µM | 9.75 µM | 7.13 µM | 6.72 µM | 10.6 µM | 13.4 µM | 9.47 µM
COc1cc2ncn(-c3cc(OCc4cccs4)c(C(N)=O)s3)c2cc1OC | > 25 µM | > 25 µM | > 25 µM | > 25 µM | > 25 µM | > 16.8 µM | > 25 µM | > 6.89 µM | 2.29 µM | 7.62 µM | 1.68 µM | 8.49 µM | 2.5 µM | 1.33 µM | 0.806 µM | 0.828 µM
COc1cc2cc(Oc3ccc(NC(=O)Nc4ccc(Cl)c(C(F)(F)F)c4)cc3)c(C)nc2cc1OCCN1CCOCC1 | 11.1 µM | 3.12 µM | 10.8 µM | 10.8 µM | 3.27 µM | 3.46 µM | > 100 µM | 3.47 µM | 3.68 µM | 1.55 µM | 1.2 µM | 1.8 µM | 1.52 µM | 1.36 µM | 1.45 µM | 1.52 µM
Cc1c(C(=O)C/C(=N/NC(=O)C[N+](C)(C)C)C(=O)Nc2ccc(Cl)cc2)[n+](=O)c2ccccc2n1O | > 100 µM | > 100 µM | > 100 µM | > 100 µM | > 100 µM | > 100 µM | > 100 µM | > 100 µM |  |  |  |  |  |  |  | 
